According to ChEMBL document CHEMBL1125161, “O'-(epoxyalkyl)tyrosines and (epoxyalkyl)phenylalanine as irreversible inactivators of serine proteases: synthesis and inhibition mechanism” (J Med Chem, 1990):

Legend:
[1] = target: Chymotrypsinogen A (Bos taurus) (UniProt P00766); test: (§1) The ratio (ki + kH)/ki (turnover ratio) was determined using ultimate activity assay
[2] = target: Chymotrypsinogen A (Bos taurus) (UniProt P00766); test: (§2) Ratio of the kinetic constants kH versus ki was reported
[3] = target: Chymotrypsinogen A (Bos taurus) (UniProt P00766); test: (§3) Ratio of the kinetic constants (ki X 10e3) versus Ki was reported
Chymotrypsinogen A = Chymotrypsinogen A (Bos taurus, UniProt P00766); test: (§4) Inhibitory activity against alpha-chymotrypsin
[4] = target: Chymotrypsinogen A (Bos taurus) (UniProt P00766); test: as §4
[5] = as §1
[6] = (§5) Inhibitory activity against subtilisin
[7] = as §2
[8] = as §5; remark: listed apart in the source
[9] = as §3
[10] = as §5; remark: listed apart in the source
Subtilisin (Bacillus) [11] = test: Ratio of the kinetic constants kH versus ki was reported
Subtilisin (Bacillus) [12] = test: Inhibitory activity against subtilisin
Subtilisin (Bacillus) [13] = test: The ratio (ki + kH)/ki (turnover ratio) was determined using ultimate activity assay
Subtilisin (Bacillus) [14] = test: Ratio of the kinetic constants (ki X 10e3) versus Ki was reported

With `CCOC(=O)[C@H](Cc1ccc(OCCC2CO2)cc1)NC(=O)c1ccccc1` (some centres not stated) as the molecule, how does the Ratio [1] read?
Its Ratio is 13.

What about the Ratio [2] of the same molecule?
The Ratio was 28.

What about the Ratio [3] of the same molecule?
Its Ratio is 14600 M⁻¹ min⁻¹.

And the Ki (Chymotrypsinogen A)?
Its Ki is 57 µM.

And the k obs [4]?
The k obs was 0.00027 s⁻¹.

What about the kH [4] of the same molecule?
Its kH is 0.38 s⁻¹.

What does the source list for `CCOC(=O)[C@H](Cc1ccc(OCCC2CO2)cc1)NC(C)=O` (some centres not stated)?
Ratio [5]: 500; Ki [6]: 0.0092 s⁻¹; Ratio [7]: 1300; Ki [8]: 140 µM; Ratio [9]: 3900 M⁻¹ min⁻¹; k obs [10]: 0.0014 s⁻¹; kH [10]: 11.8 s⁻¹

For `CCOC(=O)[C@H](Cc1ccc(OCCCC2CO2)cc1)NC(=O)c1ccccc1` (some centres not stated), which Ratio [1] is on record?
Its Ratio is 26.

What about the Ratio [2] of the same molecule?
The Ratio was 109.

And the Ratio [3]?
Its Ratio is 2400 M⁻¹ min⁻¹.

And the Ki (Chymotrypsinogen A)?
The Ki was 35 µM.

And the k obs [4]?
Its k obs is 0.00017 s⁻¹.

What about the kH [4] of the same molecule?
Its kH is 0.15 s⁻¹.

With `O=C(N[C@@H](Cc1ccc(OCCC2CO2)cc1)C(=O)Nc1ccc([N+](=O)[O-])cc1)c1ccccc1` (some centres not stated) as the molecule, how does the Ratio [1] read?
Its Ratio is 20.

And the Ratio [2]?
Its Ratio is 60.

And the Ratio [3]?
The Ratio was 14000 M⁻¹ min⁻¹.

What about the Ki (Chymotrypsinogen A) of the same molecule?
Its Ki is 59 µM.

And the k obs [4]?
The k obs was 0.00056 s⁻¹.

And the kH [4]?
Its kH is 0.83 s⁻¹.

For `O=C(N[C@@H](Cc1ccc(OCC2CO2)cc1)C(=O)Nc1ccc([N+](=O)[O-])cc1)c1ccccc1` (some centres not stated), which Ratio [1] is on record?
Its Ratio is 80.

And the Ratio [2]?
Its Ratio is 184.

And the Ratio [3]?
The Ratio was 3000 M⁻¹ min⁻¹.

What about the Ki (Chymotrypsinogen A) of the same molecule?
Its Ki is 66 µM.

What about the k obs [4] of the same molecule?
The k obs was 0.00037 s⁻¹.

What about the kH [4] of the same molecule?
The kH was 0.61 s⁻¹.

Which Ratio [1] does the source give for `CCOC(=O)[C@H](Cc1ccc(OCC2CO2)cc1)NC(=O)c1ccccc1` (some centres not stated) here?
The Ratio was 68.

What about the Ratio [2] of the same molecule?
Its Ratio is 300.

And the Ratio [3]?
The Ratio was 260 M⁻¹ min⁻¹.

And the Ki (Chymotrypsinogen A)?
The Ki was 380 µM.

What about the k obs [4] of the same molecule?
Its k obs is 0.00055 s⁻¹.

What about the kH [4] of the same molecule?
Its kH is 5.2 s⁻¹.

With `CCOC(=O)[C@H](Cc1ccc(OCC2CO2)cc1)NC(C)=O` (some centres not stated) as the molecule, how does the Ratio (Subtilisin (Bacillus) [11]) read?
Its Ratio is 3900.

And the k obs (Subtilisin (Bacillus) [12])?
The k obs was 0.0011 s⁻¹.

And the kH (Subtilisin (Bacillus) [12])?
The kH was 13.8 s⁻¹.

What about the Ratio (Subtilisin (Bacillus) [13]) of the same molecule?
The Ratio was 2000.

What about the Ratio (Subtilisin (Bacillus) [14]) of the same molecule?
The Ratio was 1000 M⁻¹ min⁻¹.
